# Test results from US8562949B2, “Radiolabeled dihydrotetrabenazine derivatives and their use as imaging agents” (The Trustees of the University of Pennsylvania, priority 2006, dated 2013).
# Assay: Biodistribution of [18F]FP-6b in normal mice (Table 4)
# Assay type: in vivo, ICR mice
# Conditions: iv
# Method: After anesthetizing ICR mice (22-25 g male) with isoflurane, 0.15 mL of a 0.1% bovine serum albumin solution containing [^18F]FP-(+)-6b (10-20 μCi) was injected directly into the tail vein. The mice (n=3 for each time point) were sacrificed by cervical dislocation (under isoflurane anesthesia) at indicated time-points post-injection. The organs of interest were removed and weighed, and the radioactivity was counted with an automatic gamma counter. The percentage dose per organ was calculated by a comparison of the tissue counts to suitably diluted aliquots of the injected material. The total activity of the blood was calculated under the assumption that it was 7% of the total body weight. The % does/g of samples was calculated by comparing the sample counts with the count of the diluted initial dose.
compound,measurement,setting,value
COc1cc2c(cc1OCCC[18F])CCN1C[C@@H](CC(C)C)[C@H](O)C[C@H]21 [[^18F]-(+)-6b],Organ distribution Blood,2 min,2.12 ± 0.17 % dose/g
same,Organ distribution Bone,2 min,1.95 ± 0.30 % dose/g
same,Organ distribution Brain,2 min,4.82 ± 0.86 % dose/g
same,Organ distribution Heart,2 min,5.47 ± 1.19 % dose/g
same,Organ distribution Kidney,2 min,10.7 ± 2.02 % dose/g
same,Organ distribution Liver,2 min,24.6 ± 1.37 % dose/g
same,Organ distribution Lung,2 min,9.04 ± 4.71 % dose/g
same,Organ distribution Muscle,2 min,0.78 ± 0.11 % dose/g
same,Organ distribution Skin,2 min,1.05 ± 0.12 % dose/g
same,Organ distribution Spleen,2 min,7.38 ± 1.62 % dose/g
same,Ratio (vs CB) Cortex,2 min,0.97
same,Ratio (vs CB) Hippocampus,2 min,0.97
same,Ratio (vs CB) Hypothalamus,2 min,1.37
same,Ratio (vs CB) Remainder,2 min,1.01
same,Ratio (vs CB) Striatum,2 min,1.56
same,Regional brain distribution Cerebellum (CB),2 min,4.67 ± 0.74 % dose/g
same,Regional brain distribution Cortex,2 min,4.54 ± 0.66 % dose/g
same,Regional brain distribution Hippocampus,2 min,4.54 ± 0.72 % dose/g
same,Regional brain distribution Hypothalamus,2 min,6.41 ± 1.11 % dose/g
same,Regional brain distribution Remainder,2 min,4.71 ± 0.74 % dose/g
same,Regional brain distribution Striatum,2 min,7.28 ± 0.80 % dose/g
same,Organ distribution Blood,30 min,1.73 ± 0.15 % dose/g
same,Organ distribution Bone,30 min,4.88 ± 1.43 % dose/g
same,Organ distribution Brain,30 min,2.05 ± 0.37 % dose/g
same,Organ distribution Heart,30 min,2.43 ± 0.22 % dose/g
same,Organ distribution Kidney,30 min,5.81 ± 1.15 % dose/g
same,Organ distribution Liver,30 min,22.2 ± 1.98 % dose/g
same,Organ distribution Lung,30 min,3.17 ± 0.33 % dose/g
same,Organ distribution Muscle,30 min,1.10 ± 0.12 % dose/g
same,Organ distribution Skin,30 min,1.42 ± 0.03 % dose/g
same,Organ distribution Spleen,30 min,3.69 ± 0.25 % dose/g
same,Ratio (vs CB) Cortex,30 min,1.34
same,Ratio (vs CB) Hippocampus,30 min,1.59
same,Ratio (vs CB) Hypothalamus,30 min,3.52
same,Ratio (vs CB) Remainder,30 min,1.45
same,Ratio (vs CB) Striatum,30 min,4.51
same,Regional brain distribution Cerebellum (CB),30 min,1.41 ± 0.23 % dose/g
same,Regional brain distribution Cortex,30 min,1.88 ± 0.63 % dose/g
same,Regional brain distribution Hippocampus,30 min,2.23 ± 0.59 % dose/g
same,Regional brain distribution Hypothalamus,30 min,4.95 ± 0.84 % dose/g
same,Regional brain distribution Remainder,30 min,2.04 ± 0.28 % dose/g
same,Regional brain distribution Striatum,30 min,6.34 ± 1.01 % dose/g
same,Organ distribution Blood,60 min,0.97 ± 0.04 % dose/g
same,Organ distribution Bone,60 min,9.22 ± 0.48 % dose/g
same,Organ distribution Brain,60 min,1.10 ± 0.32 % dose/g
same,Organ distribution Heart,60 min,1.67 ± 0.02 % dose/g
same,Organ distribution Kidney,60 min,3.48 ± 0.34 % dose/g
same,Organ distribution Liver,60 min,14.5 ± 0.91 % dose/g
same,Organ distribution Lung,60 min,2.00 ± 0.05 % dose/g
same,Organ distribution Muscle,60 min,0.73 ± 0.04 % dose/g
same,Organ distribution Skin,60 min,1.06 ± 0.04 % dose/g
same,Organ distribution Spleen,60 min,2.11 ± 0.05 % dose/g
same,Ratio (vs CB) Cortex,60 min,1.00
same,Ratio (vs CB) Hippocampus,60 min,1.32
same,Ratio (vs CB) Hypothalamus,60 min,2.71
same,Ratio (vs CB) Remainder,60 min,1.45
same,Ratio (vs CB) Striatum,60 min,4.74
same,Regional brain distribution Cerebellum (CB),60 min,0.89 ± 0.01 % dose/g
same,Regional brain distribution Cortex,60 min,0.89 ± 0.11 % dose/g
same,Regional brain distribution Hippocampus,60 min,1.18 ± 0.12 % dose/g
same,Regional brain distribution Hypothalamus,60 min,2.42 ± 0.52 % dose/g
same,Regional brain distribution Remainder,60 min,1.30 ± 0.08 % dose/g
same,Regional brain distribution Striatum,60 min,4.24 ± 0.78 % dose/g
same,Organ distribution Blood,2 hr,0.57 ± 0.09 % dose/g
same,Organ distribution Bone,2 hr,12.7 ± 1.84 % dose/g
same,Organ distribution Brain,2 hr,0.68 ± 0.11 % dose/g
same,Organ distribution Heart,2 hr,0.91 ± 0.14 % dose/g
same,Organ distribution Kidney,2 hr,2.28 ± 0.34 % dose/g
same,Organ distribution Liver,2 hr,9.81 ± 0.94 % dose/g
same,Organ distribution Lung,2 hr,1.26 ± 0.13 % dose/g
same,Organ distribution Muscle,2 hr,0.53 ± 0.05 % dose/g
same,Organ distribution Skin,2 hr,0.67 ± 0.06 % dose/g
same,Organ distribution Spleen,2 hr,1.40 ± 0.35 % dose/g
same,Ratio (vs CB) Cortex,2 hr,0.96
same,Ratio (vs CB) Hippocampus,2 hr,1.09
same,Ratio (vs CB) Hypothalamus,2 hr,1.90
same,Ratio (vs CB) Remainder,2 hr,1.15
same,Ratio (vs CB) Striatum,2 hr,3.28
same,Regional brain distribution Cerebellum (CB),2 hr,0.54 ± 0.09 % dose/g
same,Regional brain distribution Cortex,2 hr,0.51 ± 0.02 % dose/g
same,Regional brain distribution Hippocampus,2 hr,0.58 ± 0.15 % dose/g
same,Regional brain distribution Hypothalamus,2 hr,1.02 ± 0.11 % dose/g
same,Regional brain distribution Remainder,2 hr,0.62 ± 0.10 % dose/g
same,Regional brain distribution Striatum,2 hr,1.76 ± 0.33 % dose/g
same,Organ distribution Blood,4 hr,0.06 ± 0.02 % dose/g
same,Organ distribution Bone,4 hr,3.49 ± 0.35 % dose/g
same,Organ distribution Brain,4 hr,0.16 ± 0.03 % dose/g
same,Organ distribution Heart,4 hr,0.12 ± 0.01 % dose/g
same,Organ distribution Kidney,4 hr,0.31 ± 0.02 % dose/g
same,Organ distribution Liver,4 hr,1.58 ± 0.08 % dose/g
same,Organ distribution Lung,4 hr,0.19 ± 0.01 % dose/g
same,Organ distribution Muscle,4 hr,0.06 ± 0.01 % dose/g
same,Organ distribution Skin,4 hr,0.09 ± 0.01 % dose/g
same,Organ distribution Spleen,4 hr,0.17 ± 0.02 % dose/g
same,Ratio (vs CB) Cortex,4 hr,0.87
same,Ratio (vs CB) Hippocampus,4 hr,0.99
same,Ratio (vs CB) Hypothalamus,4 hr,1.15
same,Ratio (vs CB) Remainder,4 hr,1.02
same,Ratio (vs CB) Striatum,4 hr,1.11
same,Regional brain distribution Cerebellum (CB),4 hr,0.41 ± 0.02 % dose/g
same,Regional brain distribution Cortex,4 hr,0.36 ± 0.02 % dose/g
same,Regional brain distribution Hippocampus,4 hr,0.41 ± 0.01 % dose/g
same,Regional brain distribution Hypothalamus,4 hr,0.47 ± 0.01 % dose/g
same,Regional brain distribution Remainder,4 hr,0.42 ± 0.05 % dose/g
same,Regional brain distribution Striatum,4 hr,0.46 ± 0.13 % dose/g
